Measurements published in US20240262842A1, “SMALL MOLECULE INHIBITORS OF KRAS G12C MUTANT” (Merck Sharp & Dohme LLC, priority 2021, published 2024).
Where two headings read alike, the source gives them in different places.

Key:
MIA PaCa-2 cells = test: Growth inhibition activity on KRAS-G12C mutant cell line (CellTiter-Glo 3D); format: cell-based, human; details: MIA PaCa-2, 3-day culture with compound
Method in brief: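 IC50 (nM) derived from inhibition of luminescence (CellTiter-Glo 3D) relative to compound-free wells. Cells were seeded in U-bottom plates, grown 1 day, then exposed to compound for 3 days at 37 °C with 0.2% final DMSO.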

[1] = biological target: T1, interaction between GMPPNP-bound recombinant K-Ras4B G12C mutant protein and cRAF RAS-binding domain (cRAF-RBD) (Homo sapiens, UniProt P01116, G12C); test: Inhibitory activity on interaction between KRAS G12C and cRAF (Alpha technology)
T1 construct: His-tag (N)
Method in brief: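 Alpha signal measured 1.5 h after adding cRAF-RBD (aa 50-132) and detection reagents to GMPPNP-bound KRAS G12C (aa 1-169) pretreated 1 h at 25° C with compound (pH 7.5 buffer). 0% inhibition = DMSO, 100% = GDP-loaded KRAS; IC50 by curve fit.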

[2] = Homo sapiens, MIA PaCa-2, 72 h, Table 3
[3] = IC50, GMPPNP-bound KRAS G12C incubated with compound 25° C. 1 hour, Table 2
[4] = GMPPNP-bound KRAS G12C incubated with compound 25° C. 1 hour, Table 2, read-out: IC50

T1 sequence (P01116 with tags, fused parts or gaps isoform P01116-2 G12C): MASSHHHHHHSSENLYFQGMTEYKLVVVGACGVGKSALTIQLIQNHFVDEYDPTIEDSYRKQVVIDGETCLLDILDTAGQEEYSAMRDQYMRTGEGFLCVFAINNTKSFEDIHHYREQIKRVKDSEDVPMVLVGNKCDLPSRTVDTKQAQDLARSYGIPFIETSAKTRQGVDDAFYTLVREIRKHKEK

SMILES: CO[C@H]1CC[C@H](NC/C=C/C(=O)Nc2c(F)cc(C(=O)c3c(C)n4c5c(cccc35)-c3c(C(F)(F)F)cc5c(nc(C)n5C)c3OCC4)cc2F)CC1 [Example 25, (E)-N-(2,6-difluoro-4-(1,8,9-trimethyl-6-(trifluoromethyl)-12, 13-dihydro-8H-imidazo[4″,5″:3′,4′]benzo[1′,2′:7,8][1,4]oxazocino[6,5,4-hi]indole-2-carbonyl)phenyl)-4-(((1,4r)-4-methoxycyclohexyl)amino)but-2-enamide]
- IC50 (MIA PaCa-2 cells; [2]): 24 nM
- IC50 [1, 3]: 39 nM

SMILES: CO[C@H]1CC[C@H](NC/C=C/C(=O)Nc2c(F)cc(C(=O)c3cn4c5c(cccc35)-c3c(C)cc5c(nc(C)n5C)c3OCC(F)(F)C4)cc2F)CC1 [Example 26, (E)-N-(4-(13,13-difluoro-6,8,9-trimethyl-13,14-dihydro-8H,12H-imidazo[4″,5″:3′,4′]benzol[1′,2′:8,9][1,5]oxazonino[7,6,5-hi]indole-2-carbonyl)-2,6-difluorophenyl)-4-(((1r,4r)-4-methoxycyclohexyl)amino)but-2-enamide]
- IC50 (MIA PaCa-2 cells; [2]): 130 nM
- IC50 [1, 3]: 100 nM

SMILES: CO[C@H]1CC[C@H](NC/C=C/C(=O)Nc2c(F)cc(C(=O)c3cn4c5c(cccc35)-c3c(C)cc5c(nc(C)n5C)c3CCC4)cc2F)CC1 [Example 27, (E)-N-(2,6-difluoro-4-(6,8,9-trimethyl-8,11,12,13-tetrahydroimidazo[4″,5″:3′,4′]benzo[1′,2′:4,5]azocino[3,2,1-hi]indole-2-carbonyl)phenyl)-4-(((1r,4r)-4-methoxycyclohexyl)amino)but-2-enamide]
- IC50 (MIA PaCa-2 cells; [2]): 88 nM
- IC50 [1, 3]: 64 nM

SMILES: CO[C@H]1CC[C@H](NC/C=C/C(=O)Nc2c(F)cc(C(=O)c3cn4c5c(cccc35)-c3c(C(F)(F)F)cc5c(nc(C)n5C)c3CCC4)cc2F)CC1 [Example 28, (E)-N-(4-(8,9-dimethyl-6-(trifluoromethyl)-8,11,12,13-tetrahydroimidazo[4″,5″:3′,4′]benzo[1′,2:4,5]azocino[3,2,1-hi]indole-2-carbonyl)-2,6-difluorophenyl)-4-(((1r,4r)-4-methoxycyclohexyl)amino)but-2-enamide]
- IC50 (MIA PaCa-2 cells; [2]): 17 nM
- IC50 [1, 3]: 53 nM

SMILES: CO[C@H]1CC[C@H](NC/C=C/C(=O)Nc2c(F)cc(C(=O)c3cn4c5c(cccc35)-c3c(C(F)(F)F)cc5c(nc(C)n5C)c3CCCC4)cc2F)CC1 [Example 29, (E)-N-(4-(8,9-dimethy 1-6-(trifluoromethyl)-11,12,13,14-tetrahydro-8H-imidazo[4″,5″:3′,4′]benzo[1′,2:4,5]azonino[3,2,1-hi]indole-2-carbonyl)-2,6-difluorophenyl)-4-(((1r,4r)-4-methoxycyclohexyl)amino)but-2-enamide]
- IC50 (MIA PaCa-2 cells; [2]): 53 nM
- IC50 [1, 3]: 220 nM

SMILES: CO[C@H]1CC[C@H](NC/C=C/C(=O)Nc2c(F)cc(C(=O)c3cc4c5c(cccn35)-c3c(C)cc5c(nc(C)n5C)c3OCC4)cc2F)CC1 [Example 32, (E)-N-(2,6-difluoro-4-(7,9,10-trimethyl-13,14-dihydro-9H-imidazo[4″,5″:5′,6]benzo[1′,2′:2,3]oxocino[4,5,6-hi]indolizine-2-carbonyl)phenyl)-4-(((1,4r)-4-methoxycyclohexyl)amino)but-2-enamide]
- IC50 (MIA PaCa-2 cells; [2]): 86 nM
- IC50 [1, 4]: 27 nM

SMILES: Cc1nc2c3c(c(C(F)(F)F)cc2n1C)-c1cccn2c(C(=O)c4cc(F)c(NC(=O)/C=C/CNC(C)(C)C)c(F)c4)cc(c12)CCO3 [Example 33]
- IC50 (MIA PaCa-2 cells; [2]): 5 nM
- IC50 [1, 4]: 14 nM

SMILES: Cc1nc2c3c(c(C(F)(F)F)cc2n1C)-c1cccn2c(C(=O)c4cc(F)c(NC(=O)/C=C/CNC5CCOCC5)c(F)c4)cc(c12)CCO3 [Example 34]
- IC50 (MIA PaCa-2 cells; [2]): 7 nM
- IC50 [1, 4]: 12 nM

SMILES: Cc1nc2c3c(c(C(F)(F)F)cc2n1C)-c1cccn2c(C(=O)c4cc(F)c(NC(=O)/C=C/CNC5(C)CC5)c(F)c4)cc(c12)CCO3 [Example 35]
- IC50 (MIA PaCa-2 cells; [2]): 14 nM
- IC50 [1, 4]: 13 nM

SMILES: Cc1nc2c3c(c(C(F)(F)F)cc2n1C)-c1cccn2c(C(=O)c4cc(F)c(NC(=O)/C=C/CNC5CCP(C)(=O)CC5)c(F)c4)cc(c12)CCO3 (centres unmarked) [Example 36]
- IC50 (MIA PaCa-2 cells; [2]): 150 nM
- IC50 [1, 4]: 13 nM

SMILES: CO[C@H]1CC[C@H](NC/C=C/C(=O)Nc2ccc(C(=O)c3cc4c5c(cccn35)-c3c(C(F)(F)F)cc5c(nc(C)n5C)c3OCC4)cc2)CC1 [Example 37, (E)-N-(4-(9,10-dimethyl-7-(trifluoromethyl)-13,14-dihydro-9H-imidazo[4″,5″:5′,6′]benzo[1′,2′:2,3]oxocino[4,5,6-hi]indolizine-2-carbonyl)phenyl)-4-(((1,4r)-4-methoxycyclohexyl)amino)but-2-enamide]
- IC50 (MIA PaCa-2 cells; [2]): 28 nM
- IC50 [1, 4]: 40 nM

SMILES: Cc1nc2c3c(c(C(F)(F)F)cc2n1C)-c1cccn2c(C(=O)c4cc(F)c(NC(=O)/C=C/CNC5(C)CCOCC5)c(F)c4)cc(c12)CCO3 [Example 39]
- IC50 (MIA PaCa-2 cells; [2]): 12 nM
- IC50 [1, 4]: 8 nM

SMILES: Cc1nc2c3c(c(C(F)(F)F)cc2n1C)-c1cccn2c(C(=O)c4cc(F)c(NC(=O)/C=C/CNC5(C(=O)O)CCCCC5)c(F)c4)cc(c12)CCO3 [Example 40]
- IC50 (MIA PaCa-2 cells; [2]): 1600 nM
- IC50 [1, 4]: 4700 nM

SMILES: Cc1nc2c3c(c(C(F)(F)F)cc2n1C)-c1cccn2c(C(=O)c4cc(F)c(NC(=O)/C=C/CNC5(C)CCOC5)c(F)c4)cc(c12)CCO3 (centres unmarked) [Example 41]
- IC50 (MIA PaCa-2 cells; [2]): 4 nM
- IC50 [1, 4]: 10 nM

SMILES: CO[C@H]1CC[C@H](NC/C=C/C(=O)Nc2c(F)cc(C(=O)c3cc4c5c(cccn35)-c3c(C(F)(F)F)cc5c(nc(C)n5C)c3OC(C)C4)cc2F)CC1 (some centres unmarked) [Example 42, (E)-N-(2,6-difluoro-4-(9,10,13-trimethyl-7-(trifluoromethyl)-13,14-dihydro-9H-imidazo[4″,5″:5′,6′]benzo[1′,2′:2,3]oxocino[4,5,6-hi]indolizine-2-carbonyl)phenyl)-4-(((1r,4r)-4-methoxycyclohexyl)amino)but-2-enamide]
- IC50 (MIA PaCa-2 cells; [2]): 9 nM
- IC50 [1, 4]: 18 nM

SMILES: CO[C@H]1CC[C@H](NC/C=C/C(=O)Nc2c(F)cc(C(=O)c3cc4c5c(cccn35)-c3c(C(F)(F)F)cc5c(nc(C)n5C)c3OC(C)C4)cc2F)CC1 (some centres unmarked) [Example 43, (E)-N-(2,6-difluoro-4-(9,10,13-trimethyl-7-(trifluoromethyl)-13,14-dihydro-9H-imidazo[4″,5″:5′,6′]benzo[1′,2′:2,3]oxocino[4,5,6-hi]indolizine-2-carbonyl)phenyl)-4-(((1r,4r)-4-methoxycyclohexyl)amino)but-2-enamide]
- IC50 (MIA PaCa-2 cells; Table 3): 14 nM
- IC50 [1, 4]: 17 nM

SMILES: CO[C@H]1CC[C@H](NC/C=C/C(=O)Nc2c(F)cc(C(=O)c3cn4c5c(cccc35)-c3c(C)cc5c(nc(C)n5C)c3N(C)CC4)cc2F)CC1 [Example 44]
- IC50 (MIA PaCa-2 cells; [2]): 10 nM
- IC50 [1, 3]: 30 nM

SMILES: CO[C@H]1CC[C@H](NC/C=C/C(=O)Nc2c(F)cc(C(=O)c3cn4c5c(cccc35)-c3c(C(F)(F)F)cc5c(nc(C)n5C)c3N(C)CC4)cc2F)CC1 [Example 45, (E)-N-(2,6-difluoro-4-(8,9,11-trimethyl-6-(trifluoromethyl)-8,11,12,13-tetrahydroimidazo[4′ 5,6][1,4]diazocino[7,8,1-hi]indole-2-carbonyl)phenyl)-4-(((1,4r)-4-methoxycyclohexyl)amino)but-2-enamide]
- IC50 (MIA PaCa-2 cells; [2]): 5 nM
- IC50 [1, 3]: 21 nM

SMILES: CO[C@H]1CC[C@H](NC/C=C/C(=O)Nc2c(F)cc(C(=O)c3nn4c5c(cccc35)-c3c(C(F)(F)F)cc5c(nc(C)n5C)c3OCC4)cc2F)CC1 [Example 46, (E)-N-(4-(8,9-dimethyl-6-(trifluoromethyl)-12,13-dihydro-8H-imidazo[4″,5″:3′4′]benzo[1′,2′:7,8][1,4]oxazocino[6,5,4-hi]indazole-2-carbonyl)-2,6-difluorophenyl)-4-(((1r,4r)-4-methoxycyclohexyl)amino)but-2-enamide]
- IC50 (MIA PaCa-2 cells; [2]): 57 nM
- IC50 [1, 4]: 140 nM

SMILES: CO[C@H]1CC[C@H](NC/C=C/C(=O)Nc2c(F)cc(C(=O)c3cn4c5c(cccc35)-c3c(C)cc5c(nc(C)n5C)c3N(C)C(=O)C4)cc2F)CC1 [Example 47, (E)-N-(2,6-difluoro-4-(6,8,9,11-tetramethyl-12-oxo-8,11,12,13-tetrahydroimidazo[4″,5″:5′,6′]benzo[1′,2′:5,6][1,4]diazocino[7,8,1-hi]indole-2-carbonyl)phenyl)-4-(((1r,4r)-4-methoxycyclohexyl)amino)but-2-enamide]
- IC50 (MIA PaCa-2 cells; [2]): 59 nM
- IC50 [1, 3]: 23 nM

SMILES: CO[C@H]1CC[C@H](NC/C=C/C(=O)Nc2c(F)cc(C(=O)c3cn4c5c(cccc35)-c3c(C(F)(F)F)ccc(=O)n3CCC4)cc2F)CC1 [Example 49, (E)-N-(2,6-difluoro-4-(8-oxo-11-(trifluoromethyl)-5,6-dihydro-4H,8H-pyrido[2′,1′:4,5][1,5]diazocino[3,2,1-hi]indole-1-carbonyl)phenyl-4-((1r,4r)-4-methoxycyclohexyl)amino)but-2-enamide]
- IC50 (MIA PaCa-2 cells; [2]): 150 nM
- IC50 [1, 3]: 260 nM

SMILES: Cc1nc2c3c(c(C(F)(F)F)cc2n1C)-c1cccn2c(C(=O)c4cc(F)c(NC(=O)/C=C/CNC5COC5)c(F)c4)cc(c12)CCO3 [Example 51, (E)-N-(4-(9,10-dimethyl-7-(trifluoromethyl)-13,14-dihydro-9H-imidazo-[4″,5″:5′,6′]benzo[1′,2′: 2,3]oxocino[4,5,6-hi]-indolizine-2-carbonyl)-2,6-difluorophenyl)-4-(oxetan-3-ylamino)but-2-enamide]
- IC50 (MIA PaCa-2 cells; Homo sapiens, MIA PaCa-2, 72 h, Table 3-1): 15.9 nM
- IC50 ([1]; GMPPNP-bound KRAS G12C incubated with compound 25° C. 1 hour, Table 2-1, read-out: IC50): 45.4 nM
